Experiment [1] concerns the target T1, MTHFD1 recombinant human enzyme (Homo sapiens, UniProt P11586).
T1 sequence (P11586 2-291 limits assumed): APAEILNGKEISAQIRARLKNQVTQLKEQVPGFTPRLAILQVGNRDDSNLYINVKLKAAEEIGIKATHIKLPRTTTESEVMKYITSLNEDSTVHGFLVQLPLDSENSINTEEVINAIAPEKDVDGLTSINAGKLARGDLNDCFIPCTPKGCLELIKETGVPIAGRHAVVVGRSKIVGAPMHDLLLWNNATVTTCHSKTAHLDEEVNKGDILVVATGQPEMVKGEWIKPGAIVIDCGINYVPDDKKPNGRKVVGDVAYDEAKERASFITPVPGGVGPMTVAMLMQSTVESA
Kind of experiment: MTHFD1 inhibition assay (NAD(P)H-Glo luminescence). The following applies: MTHFD1 IC50, recombinant human enzyme 200 nM, NADP, band.

For experiment [2], the target named is T2, MTHFD2 recombinant human enzyme (Homo sapiens, UniProt P13995).
T2 sequence (P13995 36-350): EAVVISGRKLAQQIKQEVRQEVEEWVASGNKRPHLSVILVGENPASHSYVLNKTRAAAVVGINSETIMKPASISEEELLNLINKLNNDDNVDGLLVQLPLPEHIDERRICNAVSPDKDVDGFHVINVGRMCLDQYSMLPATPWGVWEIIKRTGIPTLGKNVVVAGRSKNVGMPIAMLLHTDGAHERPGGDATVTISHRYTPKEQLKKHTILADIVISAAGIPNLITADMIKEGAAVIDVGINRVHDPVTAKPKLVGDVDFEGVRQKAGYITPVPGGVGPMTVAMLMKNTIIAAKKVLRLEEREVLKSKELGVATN
Kind of experiment: MTHFD2 inhibition assay (NAD(P)H-Glo luminescence). The following applies: for MTHFD1/MTHFD2 IC50 ratio: selectivity of MTHFD2 inhibition over MTHFD1, band.

The pIC50 is the negative decadic logarithm of the IC50, by convention in mol/L.

pIC50: −log10 of the molar value.

On to `COC[C@H]1CN(c2ccc3c4c(c(=O)oc3c2C)CN(C(=O)c2ccc(C(=O)NS(=O)(=O)N(C)C)c(O[C@@H]3C[C@@H]5C[C@@H]5C3)c2F)CC4)CCN1C` [Example 13, 2-(((1R,3r,5S)-bicyclo[3.1.0]hexan-3-yl)oxy)-N-(N,N-dimethylsulfamoyl)-3-fluoro-4-(8-((R)-3-(methoxymethyl)-4-methylpiperazin-1-yl)-7-methyl-5-oxo-1,3,4,5-tetrahydro-2H-chromeno[3,4-c]pyridine-3-carbonyl)benzamide], for which the pIC50 in experiment [1] was 8.00 to 9.00. Moreover, in experiment [2], the pIC50 was 8.00 to 9.00 and the “MTHFD1/MTHFD2 IC50 ratio” value is listed as “F (<3)”.

On to `COC[C@H]1CN(c2ccc3c4c(c(=O)oc3c2C)CN(C(=O)c2ccc(C(=O)NS(=O)(=O)N(C)C)c(OC3C[C@@H]5C[C@@H]5C3)c2)CC4)CCN1C` (mixture of isomers) [Example 113, 2-(bicyclo[3.1.0]hexan-3-yloxy)-N-(N,N-dimethylsulfamoyl)-4-(8-((R)-3-(methoxymethyl)-4-methylpiperazin-1-yl)-7-methyl-5-oxo-1,3,4,5-tetrahydro-2H-chromeno[3,4-c]pyridine-3-carbonyl)benzamide], for which the pIC50 in experiment [1] is 7.00 to 8.00. For the same molecule, in experiment [2], the pIC50 is 6.00 to 7.00 and the “MTHFD1/MTHFD2 IC50 ratio” value is recorded as “F (<3)”.

In the case of `CCOc1c(C(=O)NS(=O)(=O)N(C)C)ccc(C(=O)N2CCc3c(c(=O)oc4c(C)c(N5CCN(C)[C@@H](COC)C5)cc(C)c34)C2)c1F` [Example 146, (R)-N-(N,N-dimethylsulfamoyl)-2-ethoxy-3-fluoro-4-(8-(3-(methoxymethyl)-4-methylpiperazin-1-yl)-7,10-dimethyl-5-oxo-1,3,4,5-tetrahydro-2H-chromeno[3,4-c]pyridine-3-carbonyl)benzamide], in experiment [1], the pIC50 is 7.00 to 8.00. Besides, in experiment [2], the pIC50 was 8.00 to 9.00 and the “MTHFD1/MTHFD2 IC50 ratio” value is given as “F (<3)”.

In the case of `COC[C@H]1CN(c2cc(C)c3c4c(c(=O)oc3c2C)CN(C(=O)c2ccc(C(=O)NS(=O)(=O)N3CCCC3)c(N3C5CCC3CC5)c2)CC4)CCN1C` [Example 121, (R)-2-(7-azabicyclo[2.2.1]heptan-7-yl)-4-(8-(3-(methoxymethyl)-4-methylpiperazin-1-yl)-7,10-dimethyl-5-oxo-1,3,4,5-tetrahydro-2H-chromeno[3,4-c]pyridine-3-carbonyl)-N-(pyrrolidin-1-ylsulfonyl)benzamide], the pIC50 in experiment [1] was 8.00 to 9.00. Further, in experiment [2], the pIC50 was 7.00 to 8.00 and the “MTHFD1/MTHFD2 IC50 ratio” value is “F (<3)”.

For `COC[C@H]1CN(c2ccc3c4c(c(=O)oc3c2C)CN(C(=O)c2cc(N3CCC3)c(C(=O)NS(=O)(=O)N3CC5CC5C3)cc2F)CC4)CCN1C` (stereo partly drawn) [Example 203, N-((3-azabicyclo[3.1.0]hexan-3-yl)sulfonyl)-2-(azetidin-1-yl)-5-fluoro-4-(8-((R)-3-(methoxymethyl)-4-methylpiperazin-1-yl)-7-methyl-5-oxo-1,3,4,5-tetrahydro-2H-chromeno[3,4-c]pyridine-3-carbonyl)benzamide], the results for the pIC50 in experiment [1] and in experiment [2] were 6.00 to 7.00 and 7.00 to 8.00, respectively. For the same molecule, the “MTHFD1/MTHFD2 IC50 ratio” value in experiment [2] is “G (^ 3 to 9.0)”.

For the molecule `COC[C@H]1CN(c2cc(Cl)c3c4c(c(=O)oc3c2C)CN(C(=O)c2cc(OC3CC3)c(C(=O)NS(=O)(=O)N(C)C)cc2F)CC4)CCN1C` [Example 306, (R)-4-(10-chloro-8-(3-(methoxymethyl)-4-methylpiperazin-1-yl)-7-methyl-5-oxo-1,3,4,5-tetrahydro-2H-chromeno[3,4-c]pyridine-3-carbonyl)-2-cyclopropoxy-N-(N,N-dimethylsulfamoyl)-5-fluorobenzamide], the pIC50 in experiment [1] is 6.00 to 7.00; in experiment [2], 7.00 to 8.00. Further, the “MTHFD1/MTHFD2 IC50 ratio” value in experiment [2] is reported as “J (>30)”.

As to `COC[C@H]1CN(c2ccc3c4c(c(=O)oc3c2Cl)CN(C(=O)c2ccc(C(=O)NS(=O)(=O)N(C)C)c(O[C@@H]3C[C@@H]5C[C@@H]5C3)c2F)CC4)CCN1C` [Example 61, 2-(((1R,3r,5S)-bicyclo[3.1.0]hexan-3-yl)oxy)-4-(7-chloro-8-((R)-3-(methoxymethyl)-4-methylpiperazin-1-yl)-5-oxo-1,3,4,5-tetrahydro-2H-chromeno[3,4-c]pyridine-3-carbonyl)-N-(N,N-dimethylsulfamoyl)-3-fluorobenzamide], the pIC50 in experiment [1] and in experiment [2] was 8.00 to 9.00 each time. Also, the “MTHFD1/MTHFD2 IC50 ratio” value in experiment [2] is “F (<3)”.

Turning to `COC[C@H]1CN(c2cc(Cl)c3c4c(c(=O)oc3c2C)CN(C(=O)c2cc(N(C)C)c(C(=O)NS(=O)(=O)N3CCCC5(COC5)C3)cc2F)CC4)CCN1C` [Example 272, (R)-N-((2-oxa-6-azaspiro[3.5]nonan-6-yl)sulfonyl)-4-(10-chloro-8-(3-(methoxymethyl)-4-methylpiperazin-1-yl)-7-methyl-5-oxo-1,3,4,5-tetrahydro-2H-chromeno[3,4-c]pyridine-3-carbonyl)-2-(dimethylamino)-5-fluorobenzamide], the pIC50 in experiment [1] was 6.00 to 7.00; in experiment [2] it was 7.00 to 8.00. Also, in experiment [2], the “MTHFD1/MTHFD2 IC50 ratio” value is “H (>9.0 to 30)”.

With `COC[C@H]1CN(c2ccc3c4c(c(=O)oc3c2C)CN(C(=O)c2cc(F)c(C(=O)NS(=O)(=O)N(C)C)c(N3C5CCC3CC5)c2)CC4)CCN1C` [Example 23, (R)-2-(7-azabicyclo[2.2.1]heptan-7-yl)-N-(N,N-dimethylsulfamoyl)-6-fluoro-4-(8-(3-(methoxymethyl)-4-methylpiperazin-1-yl)-7-methyl-5-oxo-1,3,4,5-tetrahydro-2H-chromeno[3,4-c]pyridine-3-carbonyl)benzamide], the pIC50 in experiment [1] is 8.00 to 9.00. Moreover, in experiment [2], the pIC50 is 8.00 to 9.00 and the “MTHFD1/MTHFD2 IC50 ratio” value was “F (<3)”.

As for `COC[C@H]1CN(c2cc(Cl)c3c4c(c(=O)oc3c2C)CN(C(=O)c2ccc(C(=O)NS(=O)(=O)N3CCC[C@H]3COC)c(OC)c2)CC4)CCN1C` [Example 283, 4-(10-chloro-8-((R)-3-(methoxymethyl)-4-methylpiperazin-1-yl)-7-methyl-5-oxo-1,3,4,5-tetrahydro-2H-chromeno[3,4-c]pyridine-3-carbonyl)-2-methoxy-N-(((S)-2-(methoxymethyl)pyrrolidin-1-yl)sulfonyl)benzamide], the pIC50 in experiment [1] is 5.30 to 6.00. Moreover, in experiment [2], the pIC50 is 7.00 to 8.00 and the “MTHFD1/MTHFD2 IC50 ratio” value is on record as “H (>9.0 to 30)”.

Consider `COC[C@H]1CN(c2ccc3c4c(c(=O)oc3c2C)CN(C(=O)c2cc(N3CC5CC5C3)c(C(=O)NS(=O)(=O)N3CCCC3)c(C(F)(F)F)c2)CC4)CCN1C` (stereo partly drawn) [Example 112, 2-(3-azabicyclo[3.1.0]hexan-3-yl)-4-(8-((R)-3-(methoxymethyl)-4-methylpiperazin-1-yl)-7-methyl-5-oxo-1,3,4,5-tetrahydro-2H-chromeno[3,4-c]pyridine-3-carbonyl)-N-(pyrrolidin-1-ylsulfonyl)-6-(trifluoromethyl)benzamide], for which the pIC50 in experiment [1] is less than 5.30. In experiment [2], the pIC50 is 6.00 to 7.00 and the “MTHFD1/MTHFD2 IC50 ratio” value was “G (^ 3 to 9.0)”.

In the case of `CCCOc1c(C(=O)NS(=O)(=O)N2CCCC2)ccc(C(=O)N2CCc3c(c(=O)oc4c(C)c(N5CCN(C)[C@@H](COC)C5)cc(C)c34)C2)c1F` [Example 205, (R)-3-fluoro-4-(8-(3-(methoxymethyl)-4-methylpiperazin-1-yl)-7,10-dimethyl-5-oxo-1,3,4,5-tetrahydro-2H-chromeno[3,4-c]pyridine-3-carbonyl)-2-propoxy-N-(pyrrolidin-1-ylsulfonyl)benzamide], the pIC50 in experiment [1] is 7.00 to 8.00. Besides, in experiment [2], the pIC50 is 7.00 to 8.00 and the “MTHFD1/MTHFD2 IC50 ratio” value is “G (^ 3 to 9.0)”.

The values are drawn from patent US12662489B2 (Sitryx Therapeutics Limited, priority 2023, dated 2026).
